In patent US20250345309A1, “IMMUNE HEALTH IMPROVERS” (Amazentis SA, priority 2024, published 2025):

Experiments:
circulating immune cells = assay: Clinical hemocytometry of circulating immune cells; type: in vivo, human; details: d28 vs baseline, 1000 mg/day oral
Experimental: During the baseline and follow-up visits, blood was drawn by a physician or physician's assistant to assess blood biochemistry parameters and haematology. Analysis was performed using clinically validated systems at the University Hospital Frankfurt, Germany. The aim of the present study was to globally assess the effect of UA on the immune system, in particular with respect to parameters of immune aging. We therefore performed clinical hemocytometry to first categorize circulating immune cells, comparing immune composition at baseline and upon the last study visit (FIG. 1A).

PBMCs [1] = assay: Spectral flow cytometry immune phenotyping of PBMCs; type: in vivo, human
Experimental: Spectral flow cytometry to broadly analyse immune composition was performed on PBMCs from 25 UA and 25 placebo individuals from the cohort. Flow cytometry staining was performed in three batches, to minimize batch-related effects.
PBMC were thawed and allowed to recover for 3 hours in uncoated cell culture dishes. All samples for any particular donor series were thawed together. For the intracellular panel, cells were stained after recovery with the surface panel, then fixed and permeabilized using the ThermoFisher Foxp3 fix/perm system, followed by staining for intracellular markers. For the surface-only panel, cells were treated with Bafilomycin A1 (0.5 μM) for 45 minutes, followed by 45 minutes incubation with 5-dodecanoylaminofluorescein di-β-D-galactopyranoside (C12FDG) before harvest and surface staining. All cells were analyzed on a Cytek Aurora cytometer. FCS files were exported into FlowJo (BD) for further analysis.
Raw data for all 64 output channels were unmixed using library single-color reference controls for each marker. Spectral compensation for the resulting unmixed data was corrected by manually adjusting a 31×31 matrix of spectral overlaps. Once the data was properly compensated, each individual marker was checked for signal and specificity. The resulting data was then manually gated using a representative sample. The gates are then applied to the other samples in the batch, while spot-checking the gating of the other samples for consistency with the first sample gated.

DNA methylation = DNA methylation biological age clocks (TruDiagnostic); type: in vivo, human; details: d28 vs start of intervention, 1000 mg/day oral; no decrease with placebo
Description: Blood taken from the participants at baseline and the last study visit (d28) time points were applied to dried blood cards and processed by TruDiagnostic™. The test uses DNA methylation data analysis to calculate biological ages using the PhenoAge 2nd generation clock and the Hannum 1st generation clock. The Urolithin A intervention group's biological (immune cell-blood based) age was reduced by a median of about 2 years from the start of the intervention, as calculated by the PhenoAge clock (FIG. 11A). […] A decrease in biological age was not observed in the Placebo group.

PBMCs [2] = assay: Single cell RNA sequencing of PBMCs; type: in vivo, human
TSCM = details: in vitro (Denk et al. Immunity 2022); cited from earlier work
[3] = Clinical trial adverse event reporting; details: Group A n = 25; 1000 mg/day oral, 28 days
[4] = 28 days, 1000 mg/day oral, vs placebo
[5] = d28, 1000 mg/day oral, between the two groups
[6] = d28, 1000 mg/day oral, not present after placebo
[7] = after 28 days of UA compared to placebo

O=c1oc2cc(O)ccc2c2ccc(O)cc12 [Urolithin A]
Monocytes (total count) (circulating immune cells): did not show marked alterations | Neutrophiles (total count) (circulating immune cells): did not show marked alterations | Total leukocytes (count) (circulating immune cells): did not show marked alterations | Circulating eosinophiles (total count) (circulating immune cells; not observed with placebo): significantly more | Circulating lymphocytes (total count) (circulating immune cells; not observed with placebo): significantly more | CD8+ TEMRA (PBMCs [1]; 28 days, 1000 mg/day oral): remained unaffected | CD8+ central memory cells (TCM) (PBMCs [1]; 28 days, 1000 mg/day oral): remained unaffected | CD8+ virtual memory cells (TVM) (PBMCs [1]; 28 days, 1000 mg/day oral): remained unaffected | CD8+ TSCM (PBMCs [1]; 28 days, 1000 mg/day oral, UA vs placebo group): no differences | Proportion of naïve CD8+ T cells (TN) among total PBMCs (PBMCs [1]; 28 days, 1000 mg/day oral, compared to placebo): increased | CD8+ effector memory cells (TEM) (PBMCs [1]; [4]): concomitantly reduced | Percentage of CD4+ T cells among total PBMCs (PBMCs [1]; [4]): no differences | Percentage of CD8+ T cells among total PBMCs (PBMCs [1]; [4]): no differences | Percentage of circulating γδ T cells among total PBMCs (PBMCs [1]; [4]): no differences | Percentage of total αβCD3+ T cells among total PBMCs (PBMCs [1]; [4]): no differences | Nonclassical monocytes (CD14loCD16hi) among total PBMCs (PBMCs [1]; after 28 days, 1000 mg/day oral, compared to placebo): increased | Ki67 in CD8+ cells (PBMCs [1]; after last study visit (d28), 1000 mg/day oral, not present after placebo): more | CD4+ TCM population (PBMCs [1]; d28, 1000 mg/day oral): no difference | CD4+ TEM population (PBMCs [1]; d28, 1000 mg/day oral): no difference | CD4+ TN population (PBMCs [1]; d28, 1000 mg/day oral): no difference | CD4+ TSCM population (PBMCs [1]; d28, 1000 mg/day oral): no difference | CD4+ Th1 cells (T-bet) (PBMCs [1]; d28, 1000 mg/day oral): no changes | CD56dimCD16bright NK cells among total PBMCs (PBMCs [1]; d28, 1000 mg/day oral): markedly expanded | Circulating DCs (PBMCs [1]; d28, 1000 mg/day oral): did not change | Circulating ILCs (PBMCs [1]; d28, 1000 mg/day oral): did not change | Circulating T follicular helper cells (Tfh1, Bcl-6) (PBMCs [1]; d28, 1000 mg/day oral): no changes | FoxP3+ Treg (PBMCs [1]; d28, 1000 mg/day oral): no changes | Gata3+ Th2 cells (PBMCs [1]; d28, 1000 mg/day oral): no changes | NK cell inhibitory receptor KIR expression (PBMCs [1]; d28, 1000 mg/day oral): No change | NK cell inhibitory receptor KLRG1 expression (PBMCs [1]; d28, 1000 mg/day oral): No change | NK cell inhibitory receptor NKG2A expression (PBMCs [1]; d28, 1000 mg/day oral): No change | PD-1 expression in CD8+ cells (PBMCs [1]; d28, 1000 mg/day oral): unaltered | Senescence marker p16 (PBMCs [1]; d28, 1000 mg/day oral): no difference | Senescence marker p21 (PBMCs [1]; d28, 1000 mg/day oral): no difference | Classical monocytes (PBMCs [1]; [5]): did not undergo change | Intermediate monocytes (CD14hiCD16hi) (PBMCs [1]; [5]): did not undergo change | Percentage of plasma cells among PBMCs (PBMCs [1]; [5]): no changes | Percentage of plasmablasts among PBMCs (PBMCs [1]; [5]): no changes | Percentage of total B cells among PBMCs (PBMCs [1]; [5]): no changes | Specific B cell subsets (PBMCs [1]; [5]): no changes | Senescence-associated β-galactosidase (SA-β-GAL) in circulating CD8+ cells (PBMCs [1]; [6]): increased | TOX expression in CD8+ cells (PBMCs [1]; [6]): small reduction | HLA-DR on classical monocytes (PBMCs [1]; final study visit (d28), 1000 mg/day oral): less | Reduction of biological (immune cell-blood based) age, PhenoAge clock, median (DNA methylation): about 2 years | Activation markers CD69 and CXCR4 in NK cells (PBMCs [2]; after 28 days of UA): reduction | Electron transport chain components (MT-ND5, MT-CO1, MT-CO2) in naïve T cells (PBMCs [2]; after 28 days of UA): induced | Immediate-early genes (NR4A2, DUSP1, FOS, JUN, NFKBIA) in NK cells (PBMCs [2]; after 28 days of UA): reduction | Inflammatory gene signature (MX1, XAF1, ISG15, TNSF10) in B cells (PBMCs [2]; after 28 days of UA): downregulated | Interferon response pathway genes (IFITM2, IER2, STAT1) in monocytes (PBMCs [2]; after 28 days of UA): Strongest downregulation | Mitochondrial genes (MT-CYB, MT-ND5, MT-ATP8, MT-CO1) and NAMPT in monocytes (PBMCs [2]; after 28 days of UA): strong upregulation | Protein Kinase A (PKA) signaling and other immune inhibitory pathways, CD8+ T cells (PBMCs [2]; after 28 days of UA): strongly inhibited | T cell receptor (TCR) signaling, canonical pathway analysis, CD8+ T cells (PBMCs [2]; after 28 days of UA): activation | cAMP-responsive element modulator (CREM) in CD8+ TEM subset (PBMCs [2]; after 28 days of UA): downregulation | Differentially expressed genes in CD8+ T cells, down (PBMCs [2]; [7]): 37 genes | Differentially expressed genes in CD8+ T cells, up (PBMCs [2]; [7]): 52 genes | Genes associated with T cell exhaustion, suppression and hypofunction (NR4A2, CREM, TGFB1, METRNL) in CD8+ T cells (PBMCs [2]; [7]): downregulated | IL7R in CD8+ T cells (PBMCs [2]; [7]): induction | Wnt-associated stemness transcription factors TCF7 and LEF1 in CD8+ T cells (PBMCs [2]; [7]): upregulation | Differentially expressed genes in CD8+ T cells, total (PBMCs [2]; after 28 days of UA compared to placebo, five participants): 89 genes | TSCM formation (TSCM): induces TSCM formation | Post-emergent AEs: Infections and Infestations, Covid-19 [3]: 1 (4%) n (%)
